Measurements published in ChEMBL document CHEMBL6134827, “The discovery of novel antimicrobial peptides against drug-resistant bacteria based on fragments fusion strategy” (Eur J Med Chem, 2025).
Active and inactive are the calls of the source. The rule behind the calls is not given here. Non-standard residues stand in square brackets, D forms with d. Residues, ends and D or L forms follow the SMILES beside them. Dab = NCC[C@H](N)C(=O)O

Experiments:
[1] = tested on: Pseudomonas aeruginosa; assay: In vivo antibacterial activity against multidrug resistant Pseudomonas aeruginosa infected in acute peritonitis C57BL/6 mouse model assessed as decrease in IL-6 level in serum at 5 to 20 mg/kg, ip measured after 12 hrs by ELISA; type: functional, organism-based; details: dose 5-20 mg/kg
[2] = tested on: Staphylococcus aureus; assay: Induction of morphological changes in multidrug resistant Staphylococcus aureus assessed as surface roughening at 16 microg/ml incubated for 1 hrs by SEM analysis; type: functional, organism-based; details: dose 16.0 µg/ml
[3] = tested on: Pseudomonas aeruginosa; assay: Antimicrobial activity against multidrug resistant Pseudomonas aeruginosa assessed as inhibition of visible microbial growth incubated for 18 hrs by broth microdilution method; type: functional
[4] = tested on: Escherichia coli; assay: Antimicrobial activity against Escherichia coli ATCC 25922 assessed as inhibition of visible microbial growth incubated for 18 hrs by broth microdilution method; type: functional
[5] = tested on: Staphylococcus aureus; assay: Drug resistance, ratio of MIC for multidrug resistant Staphylococcus aureus after 16 passages to MIC for multidrug resistant Staphylococcus aureus after first exposure; type: functional
[6] = tested on: Staphylococcus aureus; assay: Induction of morphological changes in multidrug resistant Staphylococcus aureus assessed as effect on cell integrity at 16 microg/ml incubated for 1 hrs by SEM analysis; type: functional, organism-based; details: dose 16.0 µg/ml
[7] = tested on: Pseudomonas aeruginosa; assay: Antimicrobial activity against multidrug resistant Pseudomonas aeruginosa assessed as inhibition of bacterial growth at >=125 microg/ml in presence of lipoteichoic acid by checkerboard microdilution assay; type: functional, organism-based; details: dose >= 125.0 µg/ml
[8] = tested on: Pseudomonas aeruginosa; assay: In vivo antibacterial activity against multidrug resistant Pseudomonas aeruginosa infected in acute peritonitis C57BL/6 mouse model assessed as reduction in bacterial load in kidney at 10 to 20 mg/kg, ip measured after 12 hrs; type: functional, organism-based; details: dose 10-20 mg/kg
[9] = tested on: Cell membrane; assay: Disruption of cell membrane in multidrug resistant Pseudomonas aeruginosa assessed as increase in red fluorescence at 16 microg/mL incubated after 2 hrs by SYTO9/PI double staining based fluorescence confocal microscopic analysis; type: subcellular; details: dose 16.0 µg/ml
[10] = tested on: Cell membrane; assay: Induction of cytoplasmic membrane depolarization in multidrug resistant Pseudomonas aeruginosa assessed as increase in fluorescence intensity at MIC concentration measured within 1 min by DISC3-5 dye based fluorescence analysis; type: subcellular
[11] = tested on: Pseudomonas aeruginosa; assay: In vivo antibacterial activity against multidrug resistant Pseudomonas aeruginosa infected in acute peritonitis C57BL/6 mouse model assessed as increase in mouse survival at 5 to 20 mg/kg, ip measured after 12 hrs; type: functional, organism-based; details: dose 5-20 mg/kg
[12] = tested on: Pseudomonas aeruginosa; assay: Induction of morphological changes in multidrug resistant Pseudomonas aeruginosa assessed as presence of cellular debris at 16 microg/ml incubated for 1 hrs by SEM analysis; type: functional, organism-based; details: dose 16.0 µg/ml
[13] = Toxicity in female C57BL/6 mouse assessed as histopathological change in spleen at 20 mg/kg, ip administered daily and measured for 5 days by H and E staining based analysis; type: organism-based; details: in vivo, 120 h, time 5 day
[14] = Hepatotoxicity in female C57BL/6 mouse assessed as change in AST level at 20 mg/kg, ip administered daily and measured for 5 days; type: toxicity, organism-based; details: in vivo, 120 h, time 5 day
[15] = tested on: Cell membrane; assay: Induction of outer cell membrane permeabilization in multidrug resistant Pseudomonas aeruginosa assessed as increase in fluorescence intensity measured for 12 mins by NPN uptake assay; type: subcellular; details: dose 4-32 µg/ml
[16] = tested on: Pseudomonas aeruginosa; assay: In vivo antibacterial activity against multidrug resistant Pseudomonas aeruginosa infected in acute peritonitis C57BL/6 mouse model assessed as decrease in TNF-alpha level in serum at 5 to 20 mg/kg, ip measured after 12 hrs by ELISA; type: functional, organism-based; details: dose 5-20 mg/kg
[17] = tested on: Staphylococcus aureus; assay: Induction of morphological changes in multidrug resistant Staphylococcus aureus assessed as presence of cellular debris at 16 microg/ml incubated for 1 hrs by SEM analysis; type: functional, organism-based; details: dose 16.0 µg/ml
[18] = Cytotoxicity against human LO2 cells assessed as survival rate at 64 microg/ml measured after 24 hrs by CCK-8 assay relative to control; type: toxicity, cell-based, L02; details: at 64 µg/mL, read-out: Survival
[19] = tested on: Staphylococcus aureus; assay: Drug resistance, ratio of MIC for Staphylococcus aureus ATCC 29213 after 16 passages exposure to MIC for Staphylococcus aureus ATCC 29213 after first exposure; type: functional
[20] = tested on: Pseudomonas aeruginosa; assay: In vivo antibacterial activity against multidrug resistant Pseudomonas aeruginosa infected in acute peritonitis C57BL/6 mouse model assessed as reduction in tubular dilation at 5 to 20 mg/kg, ip measured after 12 hrs by H and E staining based analysis; type: functional, organism-based; details: dose 5-20 mg/kg
[21] = Toxicity in female C57BL/6 mouse assessed as histopathological change in heart at 20 mg/kg, ip administered daily and measured for 5 days by H and E staining based analysis; type: organism-based; details: in vivo, 120 h, time 5 day
[22] = tested on: Pseudomonas aeruginosa; assay: Induction of morphological changes in multidrug resistant Pseudomonas aeruginosa assessed as surface roughening at 16 microg/ml incubated for 1 hrs by SEM analysis; type: functional, organism-based; details: dose 16.0 µg/ml
[23] = Stability in 25% human plasma assessed as compound remaining measured after 24 hrs by RP-HPLC analysis; type: ADME, cell-free; details: 25% plasma, read-out: Stability
[24] = Hemolytic activity in human red blood cell assessed as hemolysis at 128 microg/ml measured after 1 hrs by microplate reader assay relative to control; type: toxicity, cell-based, Erythrocyte; details: red blood cells, at 128 µg/mL, read-out: Activity
[25] = Nephrotoxicity in female C57BL/6 mouse assessed as change in BUN level at 20 mg/kg, ip administered daily and measured for 5 days; type: toxicity, organism-based; details: in vivo, 120 h, time 5 day
[26] = tested on: Pseudomonas aeruginosa; assay: Antibacterial activity against multidrug resistant Pseudomonas aeruginosa assessed as reduction in bacterial growth at 32 microg/mL by bactericidal kinetic assay; type: functional, organism-based; details: dose 32.0 µg/ml, time 0.5-4 hrs
[27] = Toxicity in female C57BL/6 mouse assessed as effect on body weight at 5 to 20 mg/kg, ip administered daily and measured for 5 days; type: organism-based; details: in vivo, 120 h, dose 5-20 mg/kg, time 5 day
[28] = tested on: Staphylococcus aureus; assay: Antimicrobial activity against multidrug resistant Staphylococcus aureus assessed as inhibition of visible microbial growth incubated for 18 hrs by broth microdilution method; type: functional
[29] = Cytotoxicity against human BEAS-2B cells assessed as inhibition of cell growth measured after 24 hrs by CCK-8 assay; type: toxicity, cell-based
[30] = Toxicity in female C57BL/6 mouse assessed as histopathological change in liver at 20 mg/kg, ip administered daily and measured for 5 days by H and E staining based analysis; type: organism-based; details: in vivo, 120 h, time 5 day
[31] = tested on: Pseudomonas aeruginosa; assay: Antibacterial activity against multidrug resistant Pseudomonas aeruginosa assessed as reduction in bacterial growth at 32 microg/mL measured after 1.5 hrs by bactericidal kinetic assay relative to control; type: functional; parameters: scale not given: the % may be the effect or the level left; details: dose 32 µg/ml
[32] = tested on: Pseudomonas aeruginosa; assay: Induction of morphological changes in multidrug resistant Pseudomonas aeruginosa assessed as effect on cell integrity at 16 microg/ml incubated for 1 hrs by SEM analysis; type: functional, organism-based; details: dose 16.0 µg/ml
[33] = Toxicity in female C57BL/6 mouse assessed as histopathological change in lung at 20 mg/kg, ip administered daily and measured for 5 days by H and E staining based analysis; type: organism-based; details: in vivo, 120 h, time 5 day
[34] = tested on: Pseudomonas aeruginosa; assay: In vivo antibacterial activity against multidrug resistant Pseudomonas aeruginosa infected in acute peritonitis C57BL/6 mouse model assessed as reduction in bacterial load in liver at 10 to 20 mg/kg, ip measured after 12 hrs; type: functional, organism-based; details: dose 10-20 mg/kg
[35] = Toxicity in female C57BL/6 mouse assessed as effect on body weight at 20 mg/kg, ip administered daily and measured for 5 days; type: organism-based; details: in vivo, 120 h, time 5 day
[36] = tested on: Pseudomonas aeruginosa; assay: Antimicrobial activity against multidrug resistant Pseudomonas aeruginosa at 1.9 to 500 microg/ml in presence of lipopolysaccharide by checkerboard microdilution assay; type: functional, organism-based; details: dose 1.9-500 µg/ml

With `CC(C)C[C@H](NC(=O)CN)C(=O)N[C@@H](CCCNC(=N)N)C(=O)N[C@@H](CCN)C(=O)N[C@@H](Cc1c[nH]c2ccccc12)C(=O)N[C@@H](CC(C)C)C(=O)N[C@@H](CCCNC(=N)N)C(=O)N[C@@H](CCN)C(=O)N[C@@H](Cc1ccccc1)C(=O)N[C@@H](CCN)C(=O)N[C@@H](CCN)C(=O)N[C@@H](Cc1ccccc1)C(=O)N[C@@H](Cc1c[nH]c2ccccc12)C(=O)O` (H-GLR[Dab]WLR[Dab]F[Dab][Dab]FW-OH) the Activity [1] was “Active”, the Activity [2] was “Active” and the MIC [3] was 4.8 µM. The MIC [4] was 4.8 µM, the Ratio [5] was <2 and the Activity [6] was “Active”. The Activity [7] was “Active; Modest Inhibition Observed”, the Activity [8] was “Active” and the Activity [9] was “Active”. The Activity [10] was “Active; Maximal Depolarization Observed”, the Activity [11] was “Active” and the Activity [12] was “Active”. For the same molecule, the Activity [13] was “Non-toxic”, the Activity [14] was “Non-toxic” and the Activity [15] was “Active”. For the same molecule, the Activity [16] was “Active”, the Activity [17] was “Active” and the viability at 24 h, 64 µg/mL [18] was > 80%. The Ratio [19] was <2, the Activity [20] was “Active” and the Activity [21] was “Non-toxic”. The Activity [22] was “Active”, the remaining at 24 h [23] was 40% and the hemolysis at 1 h, 128 µg/mL [24] was < 10%. The Activity [25] was “Non-toxic”, the Activity [26] was “Time-dependent-effect” and the Activity [27] was “Non-toxic”. For the same molecule, the MIC [28] was 4.8 µM, the CC50 at 24 h [29] was > 64 µg/mL and the Activity [30] was “Non-toxic”. For the same molecule, the Activity [31] was 100%, the Activity [32] was “Active” and the Activity [33] was “Non-toxic”. For the same molecule, the Activity [34] was “Active”, the Activity [35] was “Toxic” and the Activity [36] was “inactive”.
